This experiment concerns the target human MAT2A enzyme (Homo sapiens (Human), UniProt P31153). The experiment in a line: In vitro enzymatic inhibition activity assay on MAT2A (PiColorLock phosphate detection). Format: biochemical. Conditions: purified human MAT2A 10 nM, ATP 50 μM, L-methionine 100 μM, 6 h at 23° C.; read-out: MAT2A inhibitory activity IC50. As for the experimental part:
Enzymatic activity assays of compounds of this patent against MAT2A (to detect half inhibitory concentration IC50 values of the compounds) were performed using the phosphate detection kit PiColorLockTM (ab270004, purchased from Abcam). This method utilized the principle that purified human MAT2A enzyme catalyzes the formation of S-adenosylmethionine (SAM) from L-methionine and ATP to release free phosphate, and used the spectrophotometric method to quantify phosphate, so as to determine the enzymatic activity of MAT2A. Compounds were diluted in a 10-fold gradient starting at 1 mM with 100% DMSO (for a total of 8 concentrations) and 2 μL of each concentration was added to 48 μL of reaction buffer (50 mM Tris-HCl PH 7.5, 50 mM KCl, 10 mM MgCl2, 0.01% Brij-35, 0.01% BSA, 1 mM DTT) and mixed well. The final diluted compound was prepared, and 5 μL of MAT2A enzyme (final concentration of 10 nM), 5 μL of ATP (final concentration of 50 μM), and 5 μL of L-methionine (final concentration of 100 μM) were added to each well of a 384-well plate (#3701, purchased from CORNING). After the 384-well plate was placed in the incubator at 23° C. for 6 h, 5 μL of PiColorLock reagent diluted Accelerator (dilution ratio 1:100) was added to each well, and the reaction was stopped by incubating in the incubator at 23° C. for 5 min. 2 μL of Stabiliser was added, the absorbance was read at 630 nm on BMG CLARIOstar, and the IC50 value of the compound was calculated by using GraphPad Prism software.
Under the conditions of this experiment, the inhibition of MAT2A by test compounds can be expressed as an IC50 value for the inhibition of the level of phosphate production during the enzymatic reaction.
Chain of human MAT2A enzyme (P31153 whole entry): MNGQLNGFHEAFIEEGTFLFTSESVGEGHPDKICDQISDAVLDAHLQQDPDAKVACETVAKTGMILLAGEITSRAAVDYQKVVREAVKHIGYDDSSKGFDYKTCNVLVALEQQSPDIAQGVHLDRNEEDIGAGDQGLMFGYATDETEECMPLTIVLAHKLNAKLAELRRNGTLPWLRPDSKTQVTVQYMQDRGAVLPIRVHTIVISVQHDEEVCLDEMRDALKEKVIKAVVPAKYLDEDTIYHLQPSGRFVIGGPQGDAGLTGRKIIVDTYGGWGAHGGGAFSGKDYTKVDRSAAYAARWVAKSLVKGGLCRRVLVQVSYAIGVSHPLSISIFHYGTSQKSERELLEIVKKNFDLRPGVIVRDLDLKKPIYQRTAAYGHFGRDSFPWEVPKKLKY
The term IC50 denotes the concentration at which inhibition is half-maximal. On to `COC(=O)c1c(N)c2ccc(Br)cc2n(-c2ccccc2N)c1=O` [Example 250, methyl 4-amino-1-(2-aminophenyl)-7-bromo-2-oxo-1,2-dihydroquinoline-3-carboxylate], for which the IC50 worked out at 6.06 nM. Next, `COC(=O)c1c(N)c2ccc(C(F)(F)F)cc2n(-c2cccc(CO)c2)c1=O` [Example 21, methyl 4-amino-1-(3-(hydroxymethyl)phenyl)-2-oxo-7-(trifluoromethyl)-1,2-dihydroquinoline-3-carboxylate]: 6.58 nM; `COC(=O)c1c(N)c2ccc(Br)cc2n(-c2cnc(Cl)cc2C)c1=O` [Example 161, methyl 4-amino-7-bromo-1-(6-chloro-4-methylpyridin-3-yl)-2-oxo-1,2-dihydroquinoline-3-carboxylate]: 4.67 nM. Next, `COC(=O)c1c(N)c2ccc(Br)cc2n(-c2ccc3ccncc3c2)c1=O` [Example 219, methyl 4-amino-7-bromo-1-(isoquinolin-7-yl)-2-oxo-1,2-dihydroquinoline-3-carboxylate]: 1.87 nM; `[2H]C([2H])([2H])OC(=O)c1c(N)c2ccc(OC(F)(F)F)cc2n(-c2ccc([C@@H](C)O)cc2)c1=O` [Example 393, methyl-d3 4-amino-1-(4-((1R)-1-hydroxyethyl)phenyl)-2-oxo-7-(trifluoromethoxy)-1,2-dihydroquinoline-3-carboxylate]: 1.52 nM. Take `COC(=O)c1c(N)c2ccc(C(F)(F)F)cc2n(-c2ccc3nc[nH]c3c2)c1=O` [Example 76, methyl 4-amino-1-(3H-benzo[d]imidazol-5-yl)-2-oxo-7-(trifluoromethyl)-1,2-dihydroquinoline-3-carboxylate]: the IC50 was 1.71 nM.

For `COC(=O)c1c(N)c2ccc(Br)cc2n(-c2ccc(OC)cc2)c1=O` [Example 87, methyl 4-amino-7-bromo-1-(4-methoxyphenyl)-2-oxo-1,2-dihydroquinoline-3-carboxylate], the IC50 came out at 1.86 nM. Under `COC(=O)c1c(N)c2ccc(C(F)(F)F)cc2n(-c2ccccc2)c1=O` [Example 17, methyl 4-amino-7-trifluoromethyl-2-oxo-1-phenyl-1,2-dihydroquinoline-3-carboxylate] stands 3.58 nM. For the compound `COC(=O)c1c(N)c2ccc(Br)cc2n(-c2ccc(Br)cc2)c1=O` [Example 107, methyl 4-amino-7-bromo-1-(4-bromophenyl)-2-oxo-1,2-dihydroquinoline-3-carboxylate], the IC50 came out at 1.52 nM.

`COC(=O)c1c(N)c2ccc(I)cc2n(-c2ccc(C)nc2C)c1=O` [Example 294, methyl 4-amino-1-(2,6-dimethylpyridin-3-yl)-2-oxo-7-iodo-1,2-dihydroquinoline-3-carboxylate]: the IC50 came out at 1.08 nM. Next, `COC(=O)c1c(N)c2ccc(Br)nc2n(-c2ccc(C(C)O)nc2)c1=O` (centres unmarked) [Example 332, methyl 4-amino-7-bromo-1-(6-(1-hydroxyethyl)pyridin-3-yl)-2-oxo-1,2-dihydro-1,8-naphthyridine-3-carboxylate]: 2.28 nM. Next, `COC(=O)c1c(N)c2ccc(Br)cc2n(-c2ccc(C(C)O)nc2)c1=O` (centres unmarked) [Example 352, methyl 4-amino-7-bromo-1-(6-(1-hydroxyethyl)pyridin-3-yl)-2-oxo-1,2-dihydroquinoline-3-carboxylate]: 2.58 nM; `COC(=O)c1c(N)c2ccc(C)cc2n(-c2cccc3cnccc23)c1=O` [Example 205, methyl 4-amino-1-(isoquinolin-5-yl)-7-methyl-2-oxo-1,2-dihydroquinoline-3-carboxylate]: 4.47 nM. For `COC(=O)c1c(N)c2ccc(C3CC3)cc2n(-c2ccccc2)c1=O` [Example 66, methyl 4-amino-7-cyclopropyl-2-oxo-1-phenyl-1,2-dihydroquinoline-3-carboxylate], the IC50 was found to be 6.76 nM.

Take `COC(=O)c1c(N)c2ccc(C(F)(F)F)nc2n(-c2ccc(N)cc2)c1=O` [Example 274, methyl 4-amino-1-(4-aminophenyl)-2-oxo-7-(trifluoromethyl)-1,2-dihydro-1,8-naphthyridine-3-carboxylate]: the IC50 was found to be 0.53 nM. As to `COC(=O)c1c(N)c2ccc(C(F)(F)F)nc2n(-c2ccc([C@@H](C)O)cc2)c1=O` [Example 348, methyl 4-amino-(1-(4-(1R)-1-hydroxyethyl)phenyl)-7-(trifluoromethyl)-2-oxo-pyrido[2,3-b]pyridin-3-carboxylate], the IC50 came out at 1.33 nM. In the case of `COC(=O)c1c(N)c2ccc(Br)cc2n(-c2cccc3c(Cl)nccc23)c1=O` [Example 216, methyl 4-amino-1-(1-chloroisoquinolin-5-yl)-7-bromo-2-oxo-1,2-dihydroquinoline-3-carboxylate], the concentration for half-maximal inhibition (IC50) was found to be 2.34 nM. Next, `Nc1c(C(=O)OC2CC2)c(=O)n(-c2ccccc2)c2cc(Cl)ccc12` [Example 49, cyclopropyl 4-amino-7-chloro-2-oxo-1-phenyl-1,2-dihydroquinolin-3-carboxylate]: 8.58 nM; `COC(=O)c1c(N)c2ccc(Br)c(F)c2n(-c2ccc(N)cc2)c1=O` [Example 338, methyl 4-amino-1-(4-aminophenyl)-7-bromo-8-fluoro-2-oxo-1,2-dihydroquinoline-3-carboxylate]: 1.45 nM.

As to `COC(=O)c1c(N)c2ccc(C(F)(F)F)cc2n(-c2ccc(Cl)cc2C)c1=O` [Example 151, methyl 4-amino-1-(4-chloro-2-methylphenyl)-2-oxo-7-(trifluoromethyl)-1,2-dihydroquinoline-3-carboxylate], the IC50 amounted to 2.86 nM. Under `COC(=O)c1c(N)c2ccc(Br)cc2n(-c2ccc(F)cc2)c1=O` [Example 78, methyl 4-amino-7-bromo-1-(4-fluorophenyl)-2-oxo-1,2-dihydroquinoline-3-carboxylate] stands 2.72 nM; under `COC(=O)c1c(N)c2ccc(I)cc2n(-c2ccc(C(C)O)nc2)c1=O` (centres unmarked) [Example 307, methyl 4-amino-1-(6-(1-hydroxyethyl)pyridin-3-yl)-2-oxo-7-iodo-1,2-dihydroquinoline-3-carboxylate], 1.14 nM. With `COC(=O)c1c(N)c2ccc(Br)nc2n(-c2cnc(Cl)cc2C)c1=O` [Example 296, methyl 4-amino-7-bromo-1-(6-chloro-4-methylpyridin-3-yl)-2-oxo-1,2-dihydro-1,8-naphthyridine-3-carboxylate], the IC50 amounted to 2 nM. Under `Nc1c(C(=O)OC2CC2)c(=O)n(-c2ccccc2)c2cc(C(F)(F)F)ccc12` [Example 51, cyclopropyl 4-amino-2-oxo-1-phenyl-7-(trifluoromethyl)-1,2-dihydroquinolin-3-carboxylate] stands 2.62 nM; under `COC(=O)c1c(N)c2ccc(C3CC3)cc2n(-c2ccc(Cl)cc2)c1=O` [Example 134, methyl 4-amino-1-(4-chlorophenyl)-7-cyclopropyl-2-oxo-1,2-dihydro quinoline-3-carboxylate], 2.01 nM; under `COC(=O)c1c(N)c2ccc(Br)nc2n(-c2ccc(Cl)nc2C)c1=O` [Example 248, methyl 4-amino-7-bromo-1-(6-chloro-2-methylpyridin-3-yl)-2-oxo-1,2-dihydro-1,8-naphthyridine-3-carboxylate], 1.69 nM. In the case of `COC(=O)c1c(N)c2ccc(C(F)(F)F)cc2n(-c2ccc3ccncc3c2)c1=O` [Example 224, methyl 4-amino-1-(isoquinolin-7-yl)-2-oxo-7-(trifluoromethyl)-1,2-dihydroquinoline-3-carboxylate], the IC50 was determined as 2.81 nM. Turning to `COC(=O)c1c(N)c2ccc(C(F)(F)F)cc2n(-c2ccc3ocnc3c2)c1=O` [Example 128, methyl 4-amino-1-(benzo(2,1-d)(1,3)oxazol-5-yl)-2-oxo-7-(trifluoromethyl)-1,2-dihydroquinoline-3-carboxylate], the concentration for half-maximal inhibition (IC50) worked out at 3.49 nM. Under `COC(=O)c1c(N)c2ccc(C3CC3)cc2n(-c2ccc(OC)cc2)c1=O` [Example 73, methyl 4-amino-7-cyclopropyl-1-(4-methoxyphenyl)-2-oxo-1-phenyl-1,2-dihydroquinoline-3-carboxylate] stands 1.67 nM.

For the compound `COC(=O)c1c(N)c2ccc(Br)cc2n(-c2ccc(N)c3cnccc23)c1=O` [Example 178, methyl 4-amino-1-(8-aminoisoquinolin-5-yl)-7-bromo-2-oxo-1,2-dihydroquinoline-3-carboxylate], the IC50 turned out to be 2.59 nM. Next, `CCOC(=O)c1c(N)c2ccc(Br)cc2n(-c2ccc3ncoc3c2)c1=O` [Example 257, ethyl 4-amino-1-(benzo[d]oxazol-6-yl)-7-bromo-2-oxo-1,2-dihydroquinoline-3-carboxylate]: 2.09 nM; `COC(=O)c1c(N)c2ccc(C(F)(F)F)cc2n(-c2ccc(C=O)cc2)c1=O` [Example 164, methyl 4-amino-1-(4-formylphenyl)-2-oxo-7-(trifluoromethyl)-1,2-dihydroquinoline-3-carboxylate]: 7.58 nM.

The values above are taken from patent US20250221979A1, “NOVEL HETEROCYCLIC COMPOUND” (SHOUYAO HOLDINGS (BEIJING) CO., LTD., priority 2022, published 2025).
